Like-named read-outs stand apart in the source and are kept apart here.
Key:
Assay type in all cases: cell-based
[1] = target: T1, CFTR ΔF508 (Homo sapiens, UniProt P13569, DEL508-508); assay: Chronic TECC assay, primary bronchial epithelial cells of CF patients homozygous for CFTR ΔF508 (corrector, co-corrector and potentiator); details: chronic TECC
T1 construct: bronchial epithelial cells isolated from CF patients homozygous for the CFTR ΔF508 mutation; McGill University; Asterand; University of North Carolina hAEC-CF; host or cells: primary human bronchial epithelial cells from CF patients homozygous for ΔF508, differentiated at air-liquid interface
T1 sequence (P13569 with tags, fused parts or gaps DEL508-508): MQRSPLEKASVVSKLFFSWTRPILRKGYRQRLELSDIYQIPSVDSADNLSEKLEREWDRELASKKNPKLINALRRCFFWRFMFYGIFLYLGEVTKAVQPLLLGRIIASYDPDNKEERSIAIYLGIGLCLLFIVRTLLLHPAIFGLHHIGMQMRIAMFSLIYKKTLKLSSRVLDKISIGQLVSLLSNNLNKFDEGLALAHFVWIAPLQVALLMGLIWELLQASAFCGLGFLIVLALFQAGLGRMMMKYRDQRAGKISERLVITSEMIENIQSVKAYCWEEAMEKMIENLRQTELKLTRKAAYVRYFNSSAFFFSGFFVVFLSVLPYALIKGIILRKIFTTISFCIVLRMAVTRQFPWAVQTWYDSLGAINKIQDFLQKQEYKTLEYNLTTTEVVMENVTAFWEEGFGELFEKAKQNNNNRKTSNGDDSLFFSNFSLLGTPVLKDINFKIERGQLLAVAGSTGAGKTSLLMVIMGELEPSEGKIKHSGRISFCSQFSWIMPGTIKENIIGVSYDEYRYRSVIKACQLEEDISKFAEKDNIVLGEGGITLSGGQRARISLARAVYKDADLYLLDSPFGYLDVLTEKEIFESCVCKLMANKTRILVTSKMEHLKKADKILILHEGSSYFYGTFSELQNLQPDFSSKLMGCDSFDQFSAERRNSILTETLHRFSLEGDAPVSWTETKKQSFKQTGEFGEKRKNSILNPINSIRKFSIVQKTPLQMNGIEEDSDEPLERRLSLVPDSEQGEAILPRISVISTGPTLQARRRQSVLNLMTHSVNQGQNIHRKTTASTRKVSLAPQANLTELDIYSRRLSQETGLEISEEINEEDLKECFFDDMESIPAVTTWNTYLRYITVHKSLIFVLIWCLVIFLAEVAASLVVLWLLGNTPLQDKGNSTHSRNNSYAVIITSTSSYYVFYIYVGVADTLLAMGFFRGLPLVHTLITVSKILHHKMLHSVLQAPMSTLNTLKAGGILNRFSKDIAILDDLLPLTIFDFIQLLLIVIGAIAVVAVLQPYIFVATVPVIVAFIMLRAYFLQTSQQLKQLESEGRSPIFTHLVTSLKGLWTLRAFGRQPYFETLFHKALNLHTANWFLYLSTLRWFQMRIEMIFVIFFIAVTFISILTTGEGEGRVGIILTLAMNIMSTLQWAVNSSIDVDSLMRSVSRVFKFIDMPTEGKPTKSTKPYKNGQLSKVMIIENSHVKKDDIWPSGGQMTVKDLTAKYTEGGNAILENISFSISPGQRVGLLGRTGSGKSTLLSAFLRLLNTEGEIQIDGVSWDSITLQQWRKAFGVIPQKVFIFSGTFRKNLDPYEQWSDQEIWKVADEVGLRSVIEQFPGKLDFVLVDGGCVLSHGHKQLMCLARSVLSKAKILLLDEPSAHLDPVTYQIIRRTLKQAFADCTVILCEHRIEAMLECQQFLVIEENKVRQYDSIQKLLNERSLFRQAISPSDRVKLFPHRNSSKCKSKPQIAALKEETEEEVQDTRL
Summary of the method: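 Primary bronchial epithelial cells from ΔF508-homozygous CF patients on collagen IV-coated Transwells were chronically treated with test compound plus corrector and potentiator, which were re-added before recording. Ieq was derived from PD and Rt in NaCl-Ringer, pH 7.4, at 37° C, with apical amiloride and bilateral forskolin, recorded every 2 min over 20 min. Ieq increase was normalized to controls, and EC50 was taken from per-well concentrations.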

[2] = target: T2, ΔF508-CFTR (Homo sapiens, UniProt P13569, DEL508-508); assay: CFTR cell surface levels using HRP-tagged ΔF508-CFTR expressing CFBE cells, intrinsic corrector capacity; set-up: % Activation: concentration or dose not given beside the values; details: HRP-tagged ΔF508-CFTR expressing CFBE41o- cells, compound alone (intrinsic corrector capacity), 20 hours at 33° C.; for EC50: read-out: EC50
T2 construct: host or cells: CFBE41o-, doxycycline-inducible
T2 sequence (P13569 with tags, fused parts or gaps DEL508-508): as above
Summary of the method: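 Surface ΔF508-CFTR was measured as HRP chemiluminescence from an extracellular-loop-4 tag, expressed as percent activity between DMSO and a […] corrector control.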

[3] = target: T2, ΔF508-CFTR; assay: CFTR cell surface levels using HRP-tagged ΔF508-CFTR expressing CFBE cells, in the presence of a co-corrector; details: HRP-tagged ΔF508-CFTR CFBE cells, in the presence of 3 μM co-corrector; for EC50: read-out: EC50
Summary of the method: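 Chemiluminescent read-out of surface HRP (15 min, dark) after PBS washes. Activity is normalized as 100×(sample−DMSO)/(3 μM co-corrector alone−DMSO).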

[4] = test compound at 1 μM, AUC = full area under the curve upon forskolin stimulation
[5] = AUC = full area under the curve upon forskolin stimulation, read-out: EC50 (nM) (AUC**)

CN(C)S(=O)(=O)NC(=O)c1cc(N2CCC(N3CCOC(C#N)C3)CC2)c2c(C3CCC3)nn(-c3ccc(F)cc3)c2n1 (stereo not drawn) [Compound 527, 4-[4-(2-cyanomorpholin-4-yl)piperidin-1-yl]-3-cyclobutyl-N-(dimethylsulfamoyl)-1-(4-fluorophenyl)-1H-pyrazolo[3,4-b]pyridine-6-carboxamide]
% Activity at 1 μM (AUC**) [1, 4]: 370.693% | % Activation [2]: 295.95% | EC50 [2]: 79.1 nM | % Activation [3]: 500% | EC50 [3]: 53.8 nM

CS(=O)(=O)NC(=O)c1cc(C2CCC(N3CCOCC3)CC2)c2c(C3CCC3)nn(-c3ccccc3)c2n1 (stereo not drawn) [Compound 648, 3-cyclobutyl-N-(methanesulfonyl)-4-[4-(morpholin-4-yl)cyclohexyl]-1-phenyl-1H-pyrazolo[3,4-b]pyridine-6-carboxamide]
% Activity at 1 μM (AUC**) [1, 4]: 366.0679% | % Activation [2]: 109.65% | EC50 [2]: 316 nM | % Activation [3]: 288.85% | EC50 [3]: 110 nM

CN(C(=O)c1cc(N2CCC(N3CCOCC3)CC2)c2c(C3CCC3)nn(-c3ccc(F)cc3)c2n1)S(C)(=O)=O [Compound 654, 3-cyclobutyl-1-(4-fluorophenyl)-N-(methanesulfonyl)-N-methyl-4-[4-(morpholin-4-yl)piperidin-1-yl]-1H-pyrazolo[3,4-b]pyridine-6-carboxamide]
% Activity at 1 μM (AUC**) [1, 4]: 293.3333% | % Activation [2]: 73.925% | EC50 [2]: 5080 nM | % Activation [3]: 347.6% | EC50 [3]: 114 nM

CC(C)N1CCN(c2cc(C(=O)NS(C)(=O)=O)nc3c2c(C2CCC2)nn3-c2ccccc2)CC1 [Compound 270, 3-cyclobutyl-N-(methanesulfonyl)-1-phenyl-4-[4-(propan-2-yl)piperazin-1-yl]-1H-pyrazolo[3,4-b]pyridine-6-carboxamide]
EC50 [1, 5]: 297 nM | % Activity at 1 μM (AUC**) [1, 4]: 250% | % Activation [2]: 161.5% | EC50 [2]: 1490 nM | % Activation [3]: 327.9% | EC50 [3]: 731 nM

CC(C)c1nn(-c2ccnc(N3CCOCC3)c2)c2nc(C(=O)NS(C)(=O)=O)cc(-c3ccc(N4CCOCC4)cc3)c12 [Compound 136, N-(methanesulfonyl)-4-[4-(morpholin-4-yl)phenyl]-1-[2-(morpholin-4-yl)pyridin-4-yl]-3-(propan-2-yl)-1H-pyrazolo[3,4-b]pyridine-6-carboxamide]
EC50 [1, 5]: 23.5 nM | % Activity at 1 μM (AUC**) [1, 4]: 233.2% | % Activation [2]: 262.38% | EC50 [2]: 155 nM | % Activation [3]: 428.1% | EC50 [3]: 72.3 nM

COCC1CCN(c2cc(C(=O)NS(C)(=O)=O)nc3c2c(C(C)C)nn3-c2ccnc(N3CCOCC3)c2)CC1 [Compound 248, N-(methanesulfonyl)-4-[4-(methoxymethyl)piperidin-1-yl]-1-[2-(morpholin-4-yl)pyridin-4-yl]-3-(propan-2-yl)-1H-pyrazolo[3,4-b]pyridine-6-carboxamide]
% Activity at 1 μM (AUC**) [1, 4]: 275.96% | % Activation [2]: 234.6% | EC50 [2]: 371 nM | % Activation [3]: 450.6% | EC50 [3]: 221 nM

CC(C)Oc1nn(C2CCCCC2)c2nc(C(=O)NS(=O)(=O)N(C)C)cc(-c3ccc(C(=O)N4CCN(C)CC4)cc3)c12 [Compound 423, 1-cyclohexyl-N-(dimethylsulfamoyl)-4-[4-(4-methylpiperazine-1-carbonyl)phenyl]-3-[(propan-2-yl)oxy]-1H-pyrazolo[3,4-b]pyridine-6-carboxamide]
EC50 [1, 5]: 39.8 nM | % Activity at 1 μM (AUC**) [1, 4]: 365% | % Activation [2]: 175.55% | EC50 [2]: 140 nM | % Activation [3]: 376.85% | EC50 [3]: 109 nM

COCCN(CCOC)c1ccc(-c2cc(C(=O)NS(C)(=O)=O)nc3c2c(C(C)C)nn3C2CCCCC2)cn1 [Compound 121, 4-{6-[bis(2-methoxyethyl)amino]pyridin-3-yl}-1-cyclohexyl-N-(methanesulfonyl)-3-(propan-2-yl)-1H-pyrazolo[3,4-b]pyridine-6-carboxamide]
EC50 ([1]; Ieq = calculations based on the maximum current, read-out: EC50 (nM) (Ieq*)): 74 nM | % Activity at 1 μM (Ieq*) ([1]; test compound at 1 μM, Ieq = calculations based on the maximum current): 206% | % Activation [2]: 159.13% | EC50 [2]: 653 nM | % Activation [3]: 368.6% | EC50 [3]: 282 nM

COCCN(CCOC)c1ccc(-c2cc(C(=O)NS(C)(=O)=O)nc3c2c(C2CCC2)nn3-c2ccccc2)cn1 [Compound 246, 4-{6-[bis(2-methoxyethyl)amino]pyridin-3-yl}-3-cyclobutyl-N-(methanesulfonyl)-1-phenyl-1H-pyrazolo[3,4-b]pyridine-6-carboxamide]
EC50 [1, 5]: 61 nM | % Activity at 1 μM (AUC**) [1, 4]: 301.36% | % Activation [2]: 112.1% | EC50 [2]: 371 nM | % Activation [3]: 331.65% | EC50 [3]: 77.3 nM

COC1CCN(C2CCN(c3cc(C(=O)NS(=O)(=O)N4CC(OC)C4)nc4c3c(C3CCC3)nn4-c3ccc(F)cc3)CC2)CC1 [Compound 645, 3-cyclobutyl-1-(4-fluorophenyl)-N-(3-methoxyazetidine-1-sulfonyl)-4-(4-methoxy[1,4'-bipiperidin]-1'-yl)-1H-pyrazolo[3,4-b]pyridine-6-carboxamide]
% Activity at 3 μM (AUC**) ([1]; test compound at 3 μM, AUC = full area under the curve upon forskolin stimulation): 246.4648% | % Activation [2]: 194.33% | EC50 [2]: 331 nM | % Activation [3]: 384.37% | EC50 [3]: 244 nM

CC(C)c1nn(-c2ccc(F)cc2)c2nc(C(=O)NS(C)(=O)=O)cc(N3CCC(C(C)(C)O)CC3)c12 [Compound 304, 1-(4-fluorophenyl)-4-[4-(2-hydroxypropan-2-yl)piperidin-1-yl]-N-(methanesulfonyl)-3-(propan-2-yl)-1H-pyrazolo[3,4-b]pyridine-6-carboxamide]
% Activity at 1 μM (AUC**) [1, 4]: 194.54% | % Activation [2]: 308.2% | EC50 [2]: 203 nM | % Activation [3]: 507% | EC50 [3]: 56.1 nM

COCC1CCN(c2cc(C(=O)NS(=O)(=O)CC3COCCO3)nc3c2c(C2CCC2)nn3-c2ccccc2)CC1 (stereo not drawn) [Compound 417, 3-cyclobutyl-N-[(1,4-dioxan-2-yl)methanesulfonyl]-4-[4-(methoxymethyl)piperidin-1-yl]-1-phenyl-1H-pyrazolo[3,4-b]pyridine-6-carboxamide]
% Activity at 1 μM (AUC**) [1, 4]: 256.6667% | % Activation [2]: 307.45% | EC50 [2]: 190 nM | % Activation [3]: 539.75% | EC50 [3]: 91.9 nM

CS(=O)(=O)NC(=O)c1cc(N2CCC(CCN3CCOCC3)CC2)c2c(C3CCC3)nn(-c3ccc(F)cc3)c2n1 [Compound 431, 3-cyclobutyl-1-(4-fluorophenyl)-N-(methanesulfonyl)-4-{4-[2-(morpholin-4-yl)ethyl]piperidin-1-yl}-1H-pyrazolo[3,4-b]pyridine-6-carboxamide]
% Activity at 1 μM (AUC**) [1, 4]: 280% | % Activation [2]: 344.95% | EC50 [2]: 109 nM | % Activation [3]: 568.8% | EC50 [3]: 47 nM

COCC1CCN(c2cc(C(=O)NS(=O)(=O)CCCN3CCCC3)nc3c2c(C(C)C)nn3-c2ccc(F)cc2)CC1 [Compound 291, 1-(4-fluorophenyl)-4-[4-(methoxymethyl)piperidin-1-yl]-3-(propan-2-yl)-N-[3-(pyrrolidin-1-yl)propane-1-sulfonyl]-1H-pyrazolo[3,4-b]pyridine-6-carboxamide]
% Activity at 1 μM (AUC**) [1, 4]: 255.92% | % Activation [2]: 219.5% | EC50 [2]: 3330 nM | % Activation [3]: 420.07% | EC50 [3]: 591 nM

CC(C1CCN(c2cc(C(=O)NS(=O)(=O)N(C)C)nc3c2c(C2CCC2)nn3-c2ccc(F)cc2)CC1)N1CCOCC1 (stereo not drawn) [Compound 440, 3-cyclobutyl-N-(dimethylsulfamoyl)-1-(4-fluorophenyl)-4-{4-[1-(morpholin-4-yl)ethyl]piperidin-1-yl}-1H-pyrazolo[3,4-b]pyridine-6-carboxamide]
EC50 [1, 5]: 2.98 nM | % Activity at 1 μM (AUC**) [1, 4]: 696.6667% | % Activation [2]: 334.8% | EC50 [2]: 129 nM | % Activation [3]: 543.55% | EC50 [3]: 55.4 nM

Reference: patent publication US10259810B2, “N-sulfonylated pyrazolo[3,4-b]pyridin-6-carboxamides and method of use” (AbbVie S.à.r.l., priority 2015, dated 2019)
